A short description of data set [1]: Log P by HPLC on reversed phase columns (EEC directive 79/831 Annex V.A8). The data set is classed as physicochemical. As for the experimental part:
In the above tables, measurement of Log P values was performed according to EEC directive 79/831 Annex V.A8 by HPLC (High Performance Liquid Chromatography) on reversed phase columns with the following methods: • ^[a]
If more than one Log P value is available within the same method, all the values are given and separated by “+”.
Calibration was done with straight-chain alkan2-ones (with 3 to 16 carbon atoms) with known Log P values (measurement of Log P values using retention times with linear interpolation between successive alkanones). Lambda-max-values were determined using UV-spectra from 200 nm to 400 nm and the peak values of the chromatographic signals.

Data set [2] concerns Xanthomonas campestris pv. campestris. Description: In vivo preventive test on Xanthomonas campestris pv. campestris (black rot on cabbage). As to conditions: comparative Example C, same conditions as described in Example B; concentration not given. As for the experimental part: The tested compounds were prepared by homogenization in a mixture of acetone/Dimethyl sulfoxide/Tween®, and then diluted with water to obtain the desired concentration.
The young plants of cabbage were treated by spraying the compound prepared as described above. Control plants were treated only with an aqueous solution of acetone/Dimethyl sulfoxide/Tween®.
After 72 hours, the plants were contaminated by spraying the leaves with an aqueous bacteria suspension of Xanthomonas campestris pv. campestris. The contaminated cabbage plants were incubated for 8 or 10 days at 27° C. at 95% relative humidity.
The test was evaluated 8 or 10 days after the inoculation. 0% means an efficacy which corresponds to that of the control plants while an efficacy of 100% means that no disease was observed.
Compounds CMP1 and CMP2 were tested in an in vivo preventive test on Xanthomonas campestris pv. campestris (black rot on cabbage) in the same conditions as described in Example B.
Compounds CMP1 and CMP2 were prepared in accordance with the teaching of U.S. Pat. No. 5,534,541.

For data set [3] the test system is unchanged. Description: Xanthomonas campestris pv. campestris in vitro cell test (bacteria growth in liquid culture). The data set is classed as cell-based. To be noted: 20 ppm of tested compound, 24 h of incubation. The protocol:
Culture medium: LB broth medium (Luria Broth Miller) Sigma
Inoculum: bacteria suspension
Compounds to be tested were solubilized in DMSO and the solution used to prepare the required range of concentrations. The final concentration of DMSO used in the assay was ≤1%.
Inoculum was prepared from a pre-culture of bacteria grown in liquid medium and diluted to the desired optical density (OD).
Compounds were evaluated for their ability to inhibit bacteria growth in liquid culture assay. The compounds were added in the desired concentrations to culture medium containing the bacteria suspension. After 24 h of incubation, the efficacy of compounds was determined by spectrometric measurement of bacteria growth. Inhibition was determined by comparing the absorbance values in wells containing the compounds with the absorbance in control wells without compounds.

Setting [4] is: reversed phase HPLC columns, method [a]: LC-UV, acidic range, 0.1% formic acid in water and acetonitrile.
The mark [5] stands for this setting: reversed phase HPLC columns, value of the preparation example, method not marked.

Counter-ions that a name gives are not always drawn. Marks after values point to notes of the source that are not given here.

Regarding `C=CC1CC1(NC(=O)c1sc(Cl)c(Cl)c1Cl)C(=O)OC` (mixture of isomers) [II.36], in data set [1], the LogP is 3.68^[a]. Besides, the “Efficacy (%)” value in data set [2] is over 90%. Besides, in data set [3], the “direct activity (inhibition of bacteria growth)” value is “no direct activity”.

Take `CCOC(=O)C(CC(C)C)NC(=O)c1sc(Cl)c(Cl)c1Cl` (racemic) [II.04]: the LogP in data set [1] was 5.22^[a]. Also, the “direct activity (inhibition of bacteria growth)” value in data set [3] is reported as “no direct activity”.

On to `COC(=O)C(NC(=O)c1sc(Cl)c(Cl)c1Cl)C1CC1` (racemic) [II.06], for which the LogP in data set [1] was 3.81^[a]. Moreover, in data set [2], the “Efficacy (%)” value is given as over 90%. In addition, the “direct activity (inhibition of bacteria growth)” value in data set [3] is recorded as “no direct activity”.

Turning to `CCOC(=O)C(Cc1ccc(O)cc1)NC(=O)c1sc(Cl)c(Cl)c1Cl` (racemic) [II.15], in data set [1], the LogP is 3.63^[a]. Further, in data set [3], the “direct activity (inhibition of bacteria growth)” value is recorded as “no direct activity”.

With `CCOC(=O)C(Cc1ccccc1)NC(=O)c1sc(Cl)c(Cl)c1Cl` (racemic) [II.26], in data set [1], the LogP is 5.04^[a].

Turning to `CC(C)CC(NC(=O)c1sc(Cl)c(Cl)c1Cl)C(=O)O` (racemic) [II.31], the LogP in data set [1] is 3.62^[a].

With `O=C(NC(Cc1ccccc1)C(=O)O)c1sc(Cl)c(Cl)c1Cl` (racemic) [II.32], the LogP in data set [1] is 3.56^[a].

For the molecule `O=C(NC(C(=O)O)C1CC1)c1sc(Cl)c(Cl)c1Cl` (racemic) [II.33], in data set [1], the LogP is 2.83^[a].

As to `CCOC(=O)C(Cc1ccccc1)NC(=O)c1scc(Cl)c1Cl` (racemic) [XVIa.02], in data set [1], the LogP was 3.99^[a].

As to `COC(=O)C(NC(=O)c1cc(Cl)c(Cl)s1)C1CC1` (racemic) [XVIc.03], the LogP in data set [1] is 2.98^[a].

As to `O=C(NC(C(=O)O)C1CC1)c1cc(Cl)c(Cl)s1` (racemic) [XVIc.05], in data set [1], the LogP was 2.33^[a].

Turning to `COC(=O)CNC(=O)c1sc(Br)c(Br)c1Br` [CMP1, reference compound], the “Efficacy (%)” value in data set [2] came out at 27%.

With `COC(=O)C(NC(=O)c1sc(Cl)c(Cl)c1Cl)C(C)C` (stereo not shown) [CMP2, reference compound], in data set [2], the “Efficacy (%)” value stood at 0%.

The term chromatographic logP denotes a lipophilicity value derived from retention on a column. A higher chromatographic logP goes with a more lipophilic compound. `COC(=O)CNC(=O)c1sc(Cl)c(Cl)c1Cl` [II.01, methyl N-[(3,4,5-trichloro-2-thienyl)carbonyl]glycinate]: the chromatographic logP is 2.83 in data set [1] (setting [4]) and 2.8 in data set [1] (setting [5]). Further, in data set [2], the “Efficacy (%)” value is listed as over 90%. Besides, the “direct activity (inhibition of bacteria growth)” value in data set [3] was “no direct activity”.

In the case of `CCOC(=O)C1(NC(=O)c2sc(Cl)c(Cl)c2Cl)CC1` [II.02, ethyl 1-{[(3,4,5-trichloro-2-thienyl)carbonyl]amino}cyclopropanecarboxylate], the chromatographic logP in data set [1] (setting [4]) was 3.41; in data set [1] (setting [5]) it was 3.4. Besides, the “direct activity (inhibition of bacteria growth)” value in data set [3] was “no direct activity”.

For `O=C(NC1(C(=O)O)CC1)c1sc(Cl)c(Cl)c1Cl` [II.03], the “direct activity (inhibition of bacteria growth)” value in data set [3] is listed as “no direct activity”.

`O=C(O)CNC(=O)c1sc(Cl)c(Cl)c1Cl` [II.05, N-[(3,4,5-trichloro-2-thienyl)carbonyl]glycine]: the chromatographic logP in data set [1] (setting [4]) amounted to 2.16; in data set [1] (setting [5]) it was 2.14.

For the molecule `O=C(CNC(=O)c1sc(Cl)c(Cl)c1Cl)OCC(F)(F)F` [II.07], in data set [1], the LogP is 3.60^[a]. Besides, in data set [3], the “direct activity (inhibition of bacteria growth)” value is “no direct activity”.

Take `O=C(CNC(=O)c1sc(Cl)c(Cl)c1Cl)Oc1ccccc1` [II.08]: the LogP in data set [1] is 3.87^[a]. Also, in data set [3], the “direct activity (inhibition of bacteria growth)” value is on record as “no direct activity”.

Regarding `CC(C)OC(=O)CNC(=O)c1sc(Cl)c(Cl)c1Cl` [II.09], the LogP in data set [1] was 3.67^[a]. Moreover, the “direct activity (inhibition of bacteria growth)” value in data set [3] is reported as “no direct activity”.

As for `CCCOC(=O)CNC(=O)c1sc(Cl)c(Cl)c1Cl` [II.10], the LogP in data set [1] was 3.70^[a]. In data set [3], the “direct activity (inhibition of bacteria growth)” value was “no direct activity”.

`CCCCOC(=O)CNC(=O)c1sc(Cl)c(Cl)c1Cl` [II.11]: the LogP in data set [1] is 4.18^[a]. Besides, the “direct activity (inhibition of bacteria growth)” value in data set [3] is reported as “no direct activity”.

Consider `O=C(CNC(=O)c1sc(Cl)c(Cl)c1Cl)OC1CC1` [II.12], for which, in data set [1], the LogP was 3.33^[a]. In addition, in data set [3], the “direct activity (inhibition of bacteria growth)” value is listed as “no direct activity”.

On to `O=C(CNC(=O)c1sc(Cl)c(Cl)c1Cl)OCc1ccccc1` [II.13], for which the “direct activity (inhibition of bacteria growth)” value in data set [3] is “no direct activity”.

`CC[C@H](C)[C@H](NC(=O)c1sc(Cl)c(Cl)c1Cl)C(=O)OC` [II.14]: in data set [1], the LogP was 4.82^[a]. Also, the “Efficacy (%)” value in data set [2] was over 90%. Besides, in data set [3], the “direct activity (inhibition of bacteria growth)” value is given as “no direct activity”.

On to `O=C(CNC(=O)c1sc(Cl)c(Cl)c1Cl)OC1CCC1` [II.16], for which the LogP in data set [1] was 3.87^[a]. For the same molecule, the “direct activity (inhibition of bacteria growth)” value in data set [3] is given as “no direct activity”.

On to `CC/C=C\CCOC(=O)CNC(=O)c1sc(Cl)c(Cl)c1Cl` [II.17], for which the LogP in data set [1] is 4.69^[a]. For the same molecule, the “direct activity (inhibition of bacteria growth)” value in data set [3] is recorded as “no direct activity”.

Consider `O=C(CNC(=O)c1sc(Cl)c(Cl)c1Cl)OCC1CC1` [II.18], for which the LogP in data set [1] is 3.81^[a]. Also, the “direct activity (inhibition of bacteria growth)” value in data set [3] was “no direct activity”.

Take `CC(C)COC(=O)CNC(=O)c1sc(Cl)c(Cl)c1Cl` [II.19]: the LogP in data set [1] is 4.13^[a]. Further, in data set [3], the “direct activity (inhibition of bacteria growth)” value is listed as “no direct activity”.

Turning to `C#CCOC(=O)CNC(=O)c1sc(Cl)c(Cl)c1Cl` [II.20], the LogP in data set [1] is 3.13^[a]. For the same molecule, the “direct activity (inhibition of bacteria growth)” value in data set [3] was “no direct activity”.

`N#CCOC(=O)CNC(=O)c1sc(Cl)c(Cl)c1Cl` [II.21]: in data set [1], the LogP is 2.84^[a]. Besides, the “direct activity (inhibition of bacteria growth)” value in data set [3] is given as “no direct activity”.

With `C=CCOC(=O)CNC(=O)c1sc(Cl)c(Cl)c1Cl` [II.22], the LogP in data set [1] is 3.64^[a]. For the same molecule, in data set [3], the “direct activity (inhibition of bacteria growth)” value is reported as “no direct activity”.

As for `C[Si](C)(C)COC(=O)CNC(=O)c1sc(Cl)c(Cl)c1Cl` [II.23], the LogP in data set [1] was 4.81^[a]. Besides, in data set [3], the “direct activity (inhibition of bacteria growth)” value is on record as “no direct activity”.

Take `CC(C)(C)OC(=O)CNC(=O)c1sc(Cl)c(Cl)c1Cl` [II.24]: the LogP in data set [1] is 4.27^[b]. In addition, the “direct activity (inhibition of bacteria growth)” value in data set [3] is listed as “no direct activity”.

In the case of `CCOC(=O)[C@H](Cc1ccccc1)NC(=O)c1sc(Cl)c(Cl)c1Cl` [II.25], in data set [1], the LogP was 5.00^[a].

Consider `CCOC(=O)[C@@H](CC(C)C)NC(=O)c1sc(Cl)c(Cl)c1Cl` [II.27], for which, in data set [1], the LogP is 5.20^[a].

Regarding `CCOC(=O)[C@H](CC(C)C)NC(=O)c1sc(Cl)c(Cl)c1Cl` [II.28], the LogP in data set [1] was 5.16^[a].

On to `CC[C@H](C)[C@H](NC(=O)c1sc(Cl)c(Cl)c1Cl)C(=O)O` [II.30], for which, in data set [1], the LogP is 3.69^[a].

In the case of `CCOC(=O)CN(C)C(=O)c1sc(Cl)c(Cl)c1Cl` [II.35], the LogP in data set [1] was 3.21^[a]. For the same molecule, the “direct activity (inhibition of bacteria growth)” value in data set [3] is listed as “no direct activity”.

Turning to `CCOC(=O)[C@@H](Cc1ccccc1)NC(=O)c1sc(Cl)c(Cl)c1Cl` [II.37], the LogP in data set [1] is 5.00^[a].

With `Nc1c(C(=O)O)sc(Cl)c1Cl` [XIXc.01, 3-amino-4,5-dichlorothiophene-2-carboxylic acid hydrochloride (1:1)], in data set [1] (method [a]: LC-UV, acidic range, 0.1% formic acid in water and acetonitrile), the chromatographic logP was found to be 2.05.

`CCOC(=O)C1(NC(=O)c2sc(Cl)c(Cl)c2N)CC1` [XVIIc.01, ethyl 1-{[(3-amino-4,5-dichloro-2-thienyl)carbonyl]amino}cyclopropanecarboxylate]: the chromatographic logP in data set [1] (setting [4]) and in data set [1] (setting [5]) was 2.77 throughout.

With `CCOC(=O)CNC(=O)c1scc(Cl)c1Cl` [XVIa.01], the LogP in data set [1] is 2.40^[a].

Turning to `CCOC(=O)C1(NC(=O)c2scc(Cl)c2Cl)CC1` [XVIa.03], the LogP in data set [1] is 2.59^[a].

Take `COC(=O)C1(NC(=O)c2cc(Cl)c(Cl)s2)CC1` [XVIc.01]: the LogP in data set [1] was 2.49^[a].

The record behind these values is patent US20230159486A1, “SUBSTITUTED THIOPHENECARBOXAMIDES AND ANALOGUES AS ANTIBACTERIALS AGENTS” (Bayer Aktiengesellschaft, priority 2018, published 2023).
